Source: article PMC10897598, “TwinF interface inhibitor FP802 stops loss of motor neurons and mitigates disease progression in a mouse model of ALS” (Cell Reports Medicine, 2024)
Like-named read-outs stand apart in the source and are kept apart here.

Experiments:
[1] = tested on: primary mouse cortical neurons; assay: Glutamate neurotoxicity assay in primary cortical neurons; format: cell-based; settings: Cortical neurone, 20 μM glutamate, compound added 30 min prior, nuclear mCherry-positive neurons, read-out: IC50, protective activity against glutamate-mediated neurotoxicity
Protocol: On DIV10, vehicle (DMSO) or FP802 were added to the primary cortical cultures 30 min prior to glutamate insult. Images were acquired following the glutamate application for 24 h with 2 h intervals, where 9 images were obtained via a 20x objective for each condition at each time point with IncuCyte S3 Live-Cell Analysis System (Sartorius AG, Germany).

[2] = tested on: human iPSC-derived forebrain organoids; assay: NMDA-induced neurotoxicity in human iPSC-derived forebrain organoids; format: cell-based; settings: for IC50: Homo sapiens, NMDA 300 μM, read-out: IC50, protection against NMDA-induced neurotoxicity
Protocol: The generation of human-iPSC-derived forebrain organoids was carried out in accordance with the regulations of Heidelberg University. The sporadic ALS iPSC line and the SOD1^G94A ALS iPSC line were purchased from Cedars-Sinai (CS2XWCiALS-nxx and CS2RJViALS-nxx). The healthy control iPSC lines were from Dr. Jochen Utikal (DKFZ, Germany). Forebrain organoids were generated and maintained as described previously.[37]^,[45] Briefly, hiPSCs were dissociated into single cells by Accutase and aggregated in round bottom 96-microwell plates with 5 min centrifugation at 600 rpm. On the second day, hiPSC aggregates were collected and transferred into low attachment 35 mm dishes (24 aggregates/dish) and kept in neural induction medium (DMEM/F12 medium supplemented with 1× penicillin/streptomycin, 1× Normocin, 1× GlutaMAX, 1× N-2 supplement, 2× B27 without vitamin A, 500 nM dorsomorphin, 50 ng/mL recombinant human noggin, 10 μM SB431542, 2 μM IWP-2, 1 μM cyclopamine, and 0.1% β-mercaptoethanol) for 3 days with a daily medium change. Recombinant human FGF (10 ng/mL) was present in neural induction medium from day 4 to day 7 with one medium change on day 5.5. On day 7, neural induction medium was changed to proliferation medium (neurobasal medium supplemented with 1× GlutaMAX, 1× penicillin/streptomycin, 1× Normocin, 1× B27 without vitamin A, 10 ng/mL recombinant human FGF, 10 ng/mL recombinant human EGF, 2 μM IWP-2, and 1 μM cyclopamine) for two weeks with medium change every 2–3 days. In week 4–5, the proliferation medium was changed to differentiation medium (neurobasal medium supplemented with 1× GlutaMAX, 1× penicillin/streptomycin, 1× Normocin, 10 ng/mL recombinant human BDNF, and 10 ng/mL recombinant human NT-3) with medium change every 2–3 days. From week 6, the organoids were kept in the maturation medium (BrainPhys medium supplemented with 1× GlutaMAX, 1× penicillin/streptomycin, 1× Normocin) until week 18–20 when they were used for experiments.
The analysis of forebrain organoid cell types that undergo NMDA-induced cell death was done using immunostainings of cryosections of 20-week-old forebrain organoids with antibodies against the neuronal markers, NeuN and Myelin transcription factor 1 like (Myt1L) protein, and the astrocyte marker, glial fibrillary acidic protein (GFAP) using the following procedure. All organoids were washed with PBS twice and fixed using 4% paraformaldehyde in PBS for 30 min, followed by 24 h incubation with 30% sucrose solution in PBS. Organoids were snap frozen on dry ice in cryoprotectants and 30 μm cryosections were prepared for staining. […] Cells stained with NeuN, Myt1L, and Hoechst were automatically counted with ImageJ with the particle analyzer with a self-developed macro using the Binary-Watershed function, size exclusion was set at 60 μm^2. NeuN-positive and Myt1L-positive post-mitotic neurons were counted in confocal section z-stacks of whole organoids (5–8 organoids from 2 batches) with ImageJ with the particle analyzer with a self-developed macro using the Binary-Watershed function, size exclusion was set at 60 μm^2 and expressed as a percentage of total Hoechst-stained nuclei. GFAP staining was quantified by measuring the fluorescent signals of z-stacks of confocal sections of whole organoids (5–6 organoids from 2 batches) using ImageJ and expressed as arbitrary units. […]

[3] = Serum clinical chemistry of treated SOD1G93A mice; format: in vivo, mouse; settings: 40 mg/kg/day s.c. pump
Protocol: All hematology and most serum clinical chemistry analyses were carried out by IDEXX Laboratories, Germany. The neurofilament light chain levels in serum were determined by PBL Assay Science (USA) using the Simoa NF-light Advantage Kit (Quanterix Cat #103186).
Vehicle FP802 n Significance 95% Interval
Table S3. Clinical chemistry serum parameters of SOD1G93A mice treated with vehicle or FP802.
FP802 delivered with a subcutaneously implanted ALZET osmotic pump at 40 mg/kg/day for 4 weeks starting at
References were from Charles River Laboratories datasheets for C57BL6 mice. Related to Figure 2.

[4] = tested on: 30 common targets; assay: Pharmacology safety screening, radioligand binding assays; settings: 10 µM; significant = over 50% inhibition or stimulation
Protocol: Pharmacology safety of FP802 was evaluated in radio ligand binding assays carried out by Eurofins Panlabs Discovery Services Taiwan, Ltd. Significant responses are defined as over 50% inhibition or stimulation in the primary assays.
Table S1. Pharmacology safety profile of FP802. […]

Work on `CCN(CCN)Cc1cccc(Cl)c1` [FP802] yielded an IC50 [1] of 8.7 µM, an IC50 ([2]; SOD1G94A ALS organoids) of 9 µM and an IC50 ([2]; healthy control-1 organoids) of 26 µM. The IC50 ([2]; healthy control-2 organoids) was 15 µM, the IC50 ([2]; sporadic ALS organoids) was 9.3 µM and the “NMDA-induced death of neurons in ALS patient-derived organoids” value ([2]; NMDA 300 μM 24 h, NeuN/Myt1L immunostaining and viability, dose-dependent) was “effectively blocked”. For the same compound, the “adverse effects on the serum clinical chemistry parameters” value ([3]; 4 weeks) was “no adverse effects”, the ALT ([3]; serum, 4 weeks) was 32.60 ± 8.30 U/L and the AST ([3]; serum, 4 weeks) was 195.20 ± 147.29 U/L. It also gave an Alkaline phosphatase ([3]; serum, 4 weeks) of 69.40 ± 6.84 U/L, a Calcium ([3]; serum, 4 weeks) of 2.35 ± 0.06 mmol/L and a Chloride ([3]; serum, 4 weeks) of 111.20 ± 3.03 mmol/L. For the same compound, the Cholesterol ([3]; serum, 4 weeks) was 2.68 ± 0.60 mmol/L, the Creatine kinase ([3]; serum, 4 weeks) was 1500 ± 1475 U/L and the Creatinine ([3]; serum, 4 weeks) was 9.00 ± 2.16 µmol/L. For the same compound, the GGT ([3]; serum, 4 weeks) was “Not detectable”, the Inorganic phosphate ([3]; serum, 4 weeks) was 3.26 ± 0.18 mmol/L and the LDH ([3]; serum, 4 weeks) was 813.3 ± 474.5 U/L. It also gave a Lipase ([3]; serum, 4 weeks) of 32.80 ± 4.15 U/L, a Potassium ([3]; serum, 4 weeks) of 9.02 ± 3.83 mmol/L and a Sodium ([3]; serum, 4 weeks) of 149.6 ± 3.9 mmol/L. For the same compound, the Total protein ([3]; serum, 4 weeks) was 50.00 ± 0.71 g/L, the Triglycerides ([3]; serum, 4 weeks) was 0.48 ± 0.13 g/L and the “Urea (BUN)” value ([3]; serum, 4 weeks) was 7.58 ± 1.32 mmol/L. The Albumin ([3]; serum, 4 weeks from 15 weeks of age) was 28.00 ± 1.00 g/L and the “binding activities in radioligand binding safety panel” value [4] was “No significant binding activities”.
